Results on eight compounds are retold here after patent publication US20240381872A1, “SUBSTITUTED 2,3-DIHYDRO[1,3]THIAZOLO[4,5-B]PYRIDINES, SALTS THEREOF AND THEIR USE AS HERBICIDALLY ACTIVE SUBSTANCES” (BAYER AKTIENGESELLSCHAFT, priority 2021, published 2024).

Format in all cases: in vivo
The subject of one series is Veronica persica (VERPE). Nature of the series: Herbicidal pre-emergence action, section C (Table C10). The note with it: Veronica persica, pre-emergence, 504 h, visual grading after ca. 3 weeks, read-out: pre-emergence activity against VERPE in %; for pest or weed control at 80 g/ha: application rate 80 g/ha; for pest or weed control at 320 g/ha: application rate 320 g/ha. An excerpt:
Seeds of mono- and dicotyledonous weed plants and crop plants were sown, in plastic or organic planting pots, in sandy loam and covered with soil. The compounds according to the invention, formulated in the form of wettable powders (WP) or as emulsifiable concentrates (EC), were applied to the surface of the covering soil as aqueous suspension or emulsion, with the addition of 0.5% of an additive, at an application rate of 600 l of water/ha (converted). Following treatment, the pots were placed in a greenhouse and kept under optimum growth conditions for the test plants. The visual grading of the damage to the test plants was carried out after ca. 3 weeks in comparison to untreated controls (herbicidal effect in percent (%): 100% effect=plants have died off, 0% effect=as control plants).

The test system of the next series is Kochia scoparia (KCHSC). Description: Herbicidal pre-emergence action, section A (Table A4). The note with it: visual grading after ca. 3 weeks vs untreated controls; for pest or weed control at 1280 g/ha / pest or weed control at 320 g/ha: Bassia scoparia, pre-emergence, 504 h, read-out: pre-emergence activity against KCHSC in %; for pest or weed control at 1280 g/ha / pre-emergence activity against KCHSC in %: application rate 1280 g/ha; for pest or weed control at 320 g/ha: application rate 320 g/ha. Put shortly: (§1)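 Percent herbicidal effect relative to untreated plants (0% = as control, 100% = died off) scored visually about 3 weeks after treatment. Compounds formulated as WP or EC were sprayed at 600 L/ha with 0.5% additive onto covering soil of freshly sown sandy-loam pots, then kept under greenhouse conditions.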

The subject of series [1] is Triticum aestivum (TRZAS). Description: Post-emergence effects on crop plants, section F (Table F2). The settings on record: for percent crop plant damage (wheat, post-emergence) at 80 g/ha / percent crop plant damage (wheat, post-emergence) at 320 g/ha: Triticum aestivum, 504 h, read-out: post-emergence activity against TRZAS in %; for post-emergence activity against TRZAS in %: crop plant damage. Put shortly:
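Visual % damage versus untreated controls (100% = plants died, 0% = as control), assessed ca. 3 weeks after post-emergence spraying. Greenhouse plants in sandy loam were treated at the single-leaf stage with WP/EC formulations, 0.5% additive, 600 l water/ha, at 320 g/ha or below.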

For series [2], the system named is Echinochloa crus-galli (ECHCG). Nature of the series: Herbicidal pre-emergence action, section A (Table A3). The note with it: visual grading after ca. 3 weeks vs untreated controls; for pest or weed control at 320 g/ha / pest or weed control at 1280 g/ha: Echinochloa crus-galli, pre-emergence, 504 h, read-out: pre-emergence activity against ECHCG in %; for pest or weed control at 320 g/ha / pre-emergence activity against ECHCG in %: application rate 320 g/ha; for pest or weed control at 1280 g/ha: application rate 1280 g/ha. Put shortly:
as §1

For series [3], the system named is Amaranthus retroflexus (AMARE). Description: Herbicidal pre-emergence action, section A (Table A11). Put shortly: as §1
In another series the test system is Zea mays (ZEAMX). Nature of the series: Pre-emergence effects on crop plants, section D (Table D1). The settings on record: visual grading after ca. 3 weeks. Put shortly:
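Read-out: visual percent injury versus untreated controls at ca. 3 weeks (0% as control, 100% dead). Treatment: aqueous WP/EC suspension or emulsion with 0.5% additive, 600 l/ha, on soil covering seeds in sandy loam, at 320 g/ha or below, under optimum greenhouse conditions.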

Another series has as its system Stellaria media (STEME). Nature of the series: Herbicidal pre-emergence action, section A (Table A9). The settings on record: for pest or weed control at 320 g/ha / pest or weed control at 1280 g/ha: Stellaria media, 504 h, read-out: pre-emergence activity against STEME in %; for pest or weed control at 320 g/ha: application rate 320 g/ha; for pest or weed control at 1280 g/ha / pre-emergence activity against STEME in %: application rate 1280 g/ha. Put shortly: as §1

For series [4], the system named is Abutilon theophrasti (ABUTH). Nature of the series: Herbicidal post-emergence action, section B (Table B1). The settings on record: rated visually after about 3 weeks; for pest or weed control at 1280 g/ha: Abutilon theophrasti, 504 h, application rate 1280 g/ha, read-out: post-emergence activity against ABUTH in %. Put shortly:
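Post-emergence greenhouse test. One-leaf stage; WP or EC plus 0.5% additive; 600 liters per hectare water volume; visual % rating at ~3 weeks relative to untreated plants.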

The mark [5] stands for this setting: Amaranthus retroflexus, 504 h, application rate 320 g/ha, read-out: pre-emergence activity against AMARE in %.

Consider `CCS(=O)(=O)N1C[S+]([O-])c2cc(C)c(-c3ccccc3C)nc21` (stereo not drawn) [Example I-074], for which the pest or weed control at 80 g/ha in the series on Veronica persica (VERPE) is 80%. Also, in the series with Kochia scoparia (KCHSC), the pest or weed control at 1280 g/ha turned out to be 100%. Further, in series [1] (application rate 80 g/ha), the percent crop plant damage (wheat, post-emergence) at 80 g/ha turned out to be 0%. The pest or weed control at 320 g/ha in series [2] was 100%; in series [3] (setting [5]) it was 90%; in the series on Stellaria media (STEME), 90%. Besides, in the series on Zea mays (ZEAMX) (application rate 80 g/ha), the “pre-emergence activity against ZEAMX in % (crop plant damage)” value amounted to 0%.

For the compound `Clc1ccccc1-c1nc2c(cc1Br)SCN2` [Example I-041, 6-bromo-5-(2-chlorophenyl)-2,3-dihydro[1,3]thiazolo[4,5-b]pyridine], the pest or weed control at 320 g/ha in the series on Kochia scoparia (KCHSC) amounted to 90%; in series [2], 100%; in series [3] (setting [5]) it was 90%. The percent crop plant damage (wheat, post-emergence) at 320 g/ha in series [1] (application rate 320 g/ha) was 0%. In addition, the pest or weed control at 1280 g/ha in series [4] came out at 90%; in the series with Stellaria media (STEME), 100%. Besides, the “pre-emergence activity against ZEAMX in % (crop plant damage)” value in the series with Zea mays (ZEAMX) (application rate 80 g/ha) is recorded as 0%.

In the case of `CC(C)C(=O)N1C[S+]([O-])c2cc(Br)c(-c3ccccc3)nc21` (stereo not drawn) [Example I-067], in the series with Veronica persica (VERPE), the pest or weed control at 320 g/ha amounted to 80%. For the same compound, the percent crop plant damage (wheat, post-emergence) at 320 g/ha in series [1] (application rate 320 g/ha) turned out to be 0%. Further, the “pre-emergence activity against ZEAMX in % (crop plant damage)” value in the series with Zea mays (ZEAMX) (application rate 320 g/ha) is recorded as 20%.

`BN1CSc2cc(Br)c(-c3ccccc3C)nc21` [Example I-011]: the “pre-emergence activity against KCHSC in %” value with Kochia scoparia (KCHSC) worked out at 90%. Further, the “post-emergence activity against TRZAS in %” value in series [1] (application rate 80 g/ha) is recorded as 0%. Besides, in series [2], the “pre-emergence activity against ECHCG in %” value turned out to be 100%. In addition, the “pre-emergence activity against AMARE in %” value in series [3] (application rate 1280 g/ha) worked out at 90%. For the same compound, the “pre-emergence activity against ZEAMX in % (crop plant damage)” value with Zea mays (ZEAMX) (application rate 320 g/ha) is 10%. Also, the “pre-emergence activity against STEME in %” value in the series with Stellaria media (STEME) is 100%.

On to `CC(=O)N1CSc2cc(Br)c(-c3ccccc3Cl)nc21` [Example I-055, 1-[6-bromo-5-(2-chlorophenyl)[1,3]thiazolo[4,5-b]pyridin-3(2H)-yl]ethanone], for which the pest or weed control at 320 g/ha with Veronica persica (VERPE) was found to be 80%; in the series with Kochia scoparia (KCHSC), 90%; in series [3] (setting [5]), 90%; in the series on Stellaria media (STEME), 90%. Moreover, the percent crop plant damage (wheat, post-emergence) at 320 g/ha in series [1] (application rate 320 g/ha) was determined as 0%. In addition, the pest or weed control at 1280 g/ha in series [2] came to 100%. For the same compound, the “pre-emergence activity against ZEAMX in % (crop plant damage)” value in the series on Zea mays (ZEAMX) (application rate 320 g/ha) is reported as 0%.

With `CCc1ccccc1-c1nc2c(cc1C)[S+]([O-])CN2` (stereo not drawn) [Example I-047], the pest or weed control at 80 g/ha with Veronica persica (VERPE) came out at 80%. In addition, the percent crop plant damage (wheat, post-emergence) at 320 g/ha in series [1] (application rate 320 g/ha) was 0%. Further, in series [2], the pest or weed control at 320 g/ha amounted to 100%. Also, the pest or weed control at 1280 g/ha in series [3] (Amaranthus retroflexus, 504 h, application rate 1280 g/ha, read-out: pre-emergence activity against AMARE in %) is 90%; with Stellaria media (STEME), 90%. The “pre-emergence activity against ZEAMX in % (crop plant damage)” value in the series on Zea mays (ZEAMX) (application rate 320 g/ha) is 20%.

Take `Cc1cc2c(nc1-c1ccccc1)N(C(=O)C1(C)CC(Cl)=NO1)CS2` (stereo not drawn) [Example I-088]: the “pre-emergence activity against KCHSC in %” value in the series on Kochia scoparia (KCHSC) was determined as 90%. Also, the “post-emergence activity against TRZAS in %” value in series [1] (application rate 320 g/ha) was 20%. The “pre-emergence activity against ECHCG in %” value in series [2] was determined as 100%. Also, the “pre-emergence activity against AMARE in %” value in series [3] (application rate 320 g/ha) is on record as 90%. Further, the “post-emergence activity against ABUTH in %” value in series [4] (application rate 320 g/ha) is on record as 90%. For the same compound, the “pre-emergence activity against ZEAMX in % (crop plant damage)” value in the series on Zea mays (ZEAMX) (application rate 320 g/ha) worked out at 0%. In addition, the “pre-emergence activity against STEME in %” value with Stellaria media (STEME) was found to be 90%.

Consider `CCS(=O)(=O)N1CSc2cc(C)c(-c3ccccc3F)nc21` [Example I-060, 3-(ethylsulfonyl)-5-(2-fluorophenyl)-6-methyl-2,3-dihydro[1,3]thiazolo[4,5-b]pyridine], for which the pest or weed control at 80 g/ha with Veronica persica (VERPE) is 90%. The pest or weed control at 1280 g/ha is 100% in the series with Kochia scoparia (KCHSC), 100% in series [2] and 90% in series [4]. Also, in series [1] (application rate 80 g/ha), the percent crop plant damage (wheat, post-emergence) at 80 g/ha is 0%. The pest or weed control at 320 g/ha (in series [3] (setting [5]); in the series with Stellaria media (STEME)) was 90% each time. For the same compound, in the series on Zea mays (ZEAMX) (application rate 80 g/ha), the “pre-emergence activity against ZEAMX in % (crop plant damage)” value is on record as 20%.
